Assay results from publication PMC10384440 (Viruses, 2023).
Where two headings read alike, the source gives them in different places.

Columns and labels:
Assay type in all cases: cell-based
[1] = Cytotoxic effect on Huh-7 cells, cell viability assay with resazurin; conditions: human
[2] = test system: DENV-2 New Guinea; test: Antiviral screening: NS1 protein production in DENV-2 infected Huh-7 cells; conditions: for effect on NS1 production vs viral control: DENV-2 infected Huh-7, 24 h, non-cytotoxic concentrations (between 40 and 100 µM); for NS1 production: DENV-2 infected Huh-7, MOI 1, 24 h, compounds at non-cytotoxic concentrations (between 40 and 100 µM), mycophenolic acid 20 µM, relative to viral control
[3] = test system: Huh-7 cells; test: Cytotoxic effect on Huh-7 cells, cell viability assay with resazurin; conditions: for effect on cell viability at 100 µM: highest concentration evaluated
[4] = test system: DENV-2 subgenomic replicon in Huh-7 cells; test: NS5 protein production in Huh-7 DENV-2 replicon cells (ELISA)
[5] = test system: DENV-2; test: Viral RNA production of DENV-2 in infected Huh-7 cells (RT-qPCR); conditions: 50 µM; DENV-2 infected Huh-7; normalized using GAPDH; vs viral control
[6] = Huh-7 cells, Huh-7 cell line, resazurin, read-out: CC50
[7] = Huh-7, all evaluated concentrations

| Structure (SMILES) | CC50 [1, 6] [µM] | effect on NS1 production vs viral control [2] | effect on cell viability at the evaluated concentrations [3, 7] | NS1 production [2] | also measured |
| --- | --- | --- | --- | --- | --- |
| Cc1ccc(CNC(=O)C2Cc3c([nH]c4ccccc34)C3c4ccccc4C(=O)N23)cc1 (stereo not drawn) [MR94] | 46.2 | except for treatment with MR94 |  |  |  |
| O=C(NCc1ccccc1)C1Cc2c([nH]c3ccccc23)C2c3ccccc3C(=O)N12 (stereo not drawn) [R32] | > 100 | reduction in NS1 production | did not reduce cell viability |  |  |
| O=C(NCCc1ccc(Cl)cc1)C1Cc2c([nH]c3ccccc23)C2c3ccccc3C(=O)N12 (stereo not drawn) [R53] | 30 |  | reduced cell viability |  |  |
| Cc1cc(C)cc(NC(=O)C(NC(=O)N2CC3CC(C2)c2cccc(=O)n2C3)C(C)C)c1 (stereo not drawn) [R07] |  | reduction in NS1 production |  |  | CC50 ([1]; CC50): > 100 µM; effect on cell viability at the evaluated concentrations [3]: did not reduce cell viability |
| COc1c(C)c2c(c(O)c1C/C=C(\C)CCC(=O)O)C(=O)OC2 [mycophenolic acid, Mycophenolic acid, reference compound] |  |  |  | around 63% |  |
| CC1(C)CC(NC(=O)C2Cc3c([nH]c4ccccc34)C3c4ccccc4C(=O)N23)CC(C)(C)N1 (stereo not drawn) [M78] | 60.8 | reduction in NS1 production |  | ~38% | viability ([1]; Huh-7 cells, Huh-7, at 12.5, 25, and 50 µM, read-out: cellular viability): ~100%; effect on cell viability at 100 µM ([3]; Huh-7): loss of viability; selectivity index (SI), CC50/IC50 ([4]; CC50 Huh-7 / IC50 NS5 production): 2.5; IC50 ([4]; Dengue virus, DENV2, Huh-7 DENV-2 replicon, dose-response curve, 24 h): 24.6 µM; reduction of NS5 protein expression ([4]; Huh-7 DENV-2 replicon, 50 µM): 70%; NS5 production ([4]; Huh-7 DENV-2 replicon, 50 µM, 24 h, compared to VC (100%)): ~30%; reduction of DENV-2 viral RNA (relative expression, 2^−ΔΔCT) [5]: 1.7 times |
| O=C(NCCc1c[nH]c2ccccc12)C1Cc2c([nH]c3ccccc23)C2c3ccccc3C(=O)N12 (stereo not drawn) [MR25] | 70.6 | reduction in NS1 production |  | ~45% |  |
| O=C(NCCc1ccccc1)C1Cc2c([nH]c3ccccc23)C2c3ccccc3C(=O)N12 (stereo not drawn) [R55] | > 100 | reduction in NS1 production | did not reduce cell viability |  |  |
| O=C(NCCc1ccccc1F)C1Cc2c([nH]c3ccccc23)C2c3ccccc3C(=O)N12 (stereo not drawn) [MR41] | > 100 | reduction in NS1 production | no effect was evidenced |  |  |
| O=C(Nc1ccc2c(c1)OCCO2)[C@@H]1CCCN1C(=O)[C@@H]1Cc2ccccc2CN1 [M76] | > 100 | reduction in NS1 production |  |  | effect on cell viability at 100 µM ([3]; Huh-7): no effect was observed |
